The values below come from patent publication US8552220B2, “Therapeutic agent for Alzheimer's disease” (Tokyo Institute of Technology, priority 2008, dated 2013).

Broadly, the melting point is the temperature, or range, at which the solid turns liquid. `O=C(/C=C/c1ccc(O)cc1Cl)CC(=O)/C=C/c1ccc(O)cc1Cl` [CU362, (1E,6E)-1,7-bis(2-chloro-4-hydroxyphenyl)hepta-1,6-diene-3,5-dione] returned a melting point of 248 to 254 °C. As for `O=C(/C=C/c1ccc(O)cc1)CC(=O)/C=C/c1cc(O)ccc1-c1ccccc1` [CU526, (1E,6E)-1-(4-hydroxybiphenyl-2-yl)-7-(4-hydroxyphenyl)hepta-1,6-diene-3,5-dione], the figure is 179 to 186 °C.

`O=C(/C=C/c1ccc(O)cc1)CC(=O)/C=C/c1ccccc1-c1ccc2ccccc2c1` [CU529, (1E,6E)-1-(4-hydroxyphenyl)-7-[2-(naphthalen-2-yl)phenyl]hepta-1,6-diene-3,5-dione]: the melting point is 105 to 114 °C. As for `COc1ccc(/C=C/C(=O)CC(=O)/C=C/c2cc(O)ccc2[N+](=O)[O-])cc1O` [CU133, (1E,6E)-1-(3-hydroxy-4-methoxyphenyl)-7-(5-hydroxy-2-nitrophenyl)hepta-1,6-diene-3,5-dione], the figure is 107 to 111 °C; as for `CCOC(=O)c1cnnn1-c1ccccc1/C=C/C(=O)CC(=O)/C=C/c1ccc(O)cc1` [CU626, (1E,6E)-1-[2-(5-ethoxycarbonyl-1H-1,2,3-triazol-1-yl)phenyl]-7-(4-hydroxyphenyl)hepta-1,6-diene-3,5-dione], 93 to 96 °C. As for `O=C(/C=C/c1cc(O)ccc1Br)CC(=O)/C=C/c1cc(O)ccc1Br` [CU614, (1E,6E)-1,7-bis(2-bromo-5-hydroxyphenyl)hepta-1,6-diene-3,5-dione], the figure is 239 to 243 °C.

`O=C(/C=C/c1ccc(O)cc1)CC(=O)/C=C/c1ccccc1-c1cnnn1Cc1ccccc1` [CU645, (1E,6E)-1-[2-(1-benzyl-1H-1,2,3-triazol-5-yl)phenyl]-7-(4-hydroxyphenyl)hepta-1,6-diene-3,5-dione] displayed a melting point of 205 to 215 °C. As for `COc1cc(O)ccc1/C=C/C(=O)CC(=O)/C=C/c1ccc(O)cc1Cl` [CU600, (1E,6E)-1-(2-chloro-4-hydroxyphenyl)-7-(4-hydroxy-2-methoxyphenyl)hepta-1,6-diene-3,5-dione], the figure is 206 to 211 °C; as for `O=C(/C=C/c1ccc(O)cc1)CC(=O)/C=C/c1cc(O)ccc1F` [CU621, (1E,6E)-1-(2-fluoro-5-hydroxyphenyl)-7-(4-hydroxyphenyl)hepta-1,6-diene-3,5-dione], 205 to 209 °C. As for `O=C(/C=C/c1ccc(O)cc1)CC(=O)/C=C/c1cc(Br)ccc1F` [CU466, (1E,6E)-1-(5-bromo-2-fluorophenyl)-7-(4-hydroxyphenyl)hepta-1,6-diene-3,5-dione], the figure is 177 to 203 °C. The figure for `CN(C)c1ccc(/C=C/C(=O)CC(=O)CCc2ccc(O)cc2)c([N+](=O)[O-])c1` [CU523, (E)-1-(4-dimethylamino-2-nitrophenyl)-7-(4-hydroxyphenyl)hept-1-ene-3,5-dione] is 136 to 142 °C. Compound `O=C(/C=C/c1ccc2cc[nH]c2c1)CC(=O)/C=C/c1cc(O)ccc1Br` [CU562, (1E,6E)-1-(2-bromo-5-hydroxyphenyl)-7-(1H-indol-6-yl)hepta-1,6-diene-3,5-dione] came in with a melting point of 196 to 200 °C. As for `O=C(/C=C/c1ccc(O)cc1)CC(=O)/C=C/c1ccccc1F` [CU622, (1E,6E)-1-(2-fluorophenyl)-7-(4-hydroxyphenyl)hepta-1,6-diene-3,5-dione], the figure is 146 to 150 °C; as for `O=C(/C=C/c1ccc(O)cc1)CC(=O)/C=C/c1cc(C(F)(F)F)ccc1F` [CU473, (1E,6E)-1-(2-fluoro-5-trifluoromethylphenyl)-7-(4-hydroxyphenyl)hepta-1,6-diene-3,5-dione], 168 to 174 °C; as for `COc1cc(/C=C/C(=O)CC(=O)/C=C/c2ccc(O)cc2)c(Br)cc1O` [CU539, (1E,6E)-1-(2-bromo-4-hydroxy-5-methoxyphenyl)-7-(4-hydroxyphenyl)hepta-1,6-diene-3,5-dione], 237 to 242 °C. The figure for `COc1cc(O)ccc1/C=C/C(=O)CC(=O)/C=C/c1ccc(N(C)C)cc1[N+](=O)[O-]` [CU603, (1E,6E)-1-(4-dimethylamino-2-nitrophenyl)-7-(4-hydroxy-2-methoxyphenyl)hepta-1,6-diene-3,5-dione] is 223 to 226 °C.

`O=C(/C=C/c1cc(O)ccc1Br)CC(=O)/C=C/c1cc(O)ccc1-c1ccccc1` [CU616, (1E,6E)-1-(2-bromo-5-hydroxyphenyl)-7-(4-hydroxybiphenyl-2-yl)hepta-1,6-diene-3,5-dione] displayed a melting point of 101 to 104 °C.

On to `[N-]=[N+]=Nc1ccccc1/C=C/C(=O)CC(=O)/C=C/c1ccc(O)cc1` [CU651, (1E,6E)-1-(2-azidophenyl)-7-(4-hydroxyphenyl)hepta-1,6-diene-3,5-dione], for which the melting point was 153 to 161 °C.

In turn, `COC(=O)c1ccccc1/C=C/C(=O)CC(=O)/C=C/c1ccc(O)cc1` [CU478, (1E,6E)-1-(4-hydroxyphenyl)-7-[2-(methoxycarbonyl)phenyl]hepta-1,6-diene-3,5-dione] showed a melting point of 145 to 150 °C.

In the case of `O=C(/C=C/c1ccc(O)cc1)CC(=O)/C=C/c1cc(OCc2ccccc2)ccc1-c1ccccc1` [CU527, (1E,6E)-1-(4-benzyloxybiphenyl-2-yl)-7-(4-hydroxyphenyl)hepta-1,6-diene-3,5-dione], the melting point was in the range of 172 to 178 °C. The figure for `O=C(/C=C/c1cc(O)ccc1Br)CC(=O)CCc1ccc(O)cc1` [CU549, (E)-1-(2-bromo-5-hydroxyphenyl)-7-(4-hydroxyphenyl)hept-1-ene-3,5-dione] is 161 to 165 °C; for `COc1ccc(O)cc1/C=C/C(=O)CC(=O)/C=C/c1cc(O)ccc1Br` [CU608, (1E,6E)-1-(2-bromo-5-hydroxyphenyl)-7-(5-hydroxy-2-methoxyphenyl)hepta-1,6-diene-3,5-dione] it is 90 to 96 °C; for `O=C(/C=C/c1ccc(O)cc1)CC(=O)/C=C/c1ccccc1-c1cn(Cc2ccccc2)nn1` [CU644, (1E,6E)-1-[2-(1-benzyl-1H-1,2,3-triazol-4-yl)phenyl]-7-(4-hydroxyphenyl)hepta-1,6-diene-3,5-dione] it is 103 to 109 °C.

`O=C(/C=C/c1ccc(O)cc1)CC(=O)/C=C/c1cc(O)c(Br)cc1Br` [CU544, (1E,6E)-1-(2,4-dibromo-5-hydroxyphenyl)-7-(4-hydroxyphenyl)hepta-1,6-diene-3,5-dione] had a melting point of 255 to 259 °C. As for `COc1cc(O)ccc1/C=C/C(=O)CC(=O)/C=C/c1ccc(N(C)C)cc1Cl` [CU581, (1E,6E)-1-(2-chloro-4-dimethylaminophenyl)-7-(4-hydroxy-2-methoxyphenyl)hepta-1,6-diene-3,5-dione], the figure is 187 to 192 °C; as for `O=C(/C=C/c1ccc(O)cc1)CC(=O)/C=C/c1cc(F)ccc1-c1ccccc1` [CU640, (1E,6E)-1-(4-fluorobiphenyl-2-yl)-7-(4-hydroxyphenyl)hepta-1,6-diene-3,5-dione], 187 to 191 °C; as for `O=C(/C=C/c1ccc2cc[nH]c2c1)CC(=O)/C=C/c1ccc(O)cc1Cl` [CU601, (1E,6E)-1-(2-chloro-4-hydroxyphenyl)-7-(1H-indol-6-yl)hepta-1,6-diene-3,5-dione], 182 to 186 °C. The figure for `O=C(/C=C/c1ccc2cc[nH]c2c1)CC(=O)/C=C/c1cc(OCc2ccccc2)ccc1-c1ccccc1` [CU566, (1E,6E)-1-(4-benzyloxybiphenyl-2-yl)-7-(1H-indol-6-yl)hepta-1,6-diene-3,5-dione] is 178 to 183 °C.

Compound `CN(C)CCOc1ccc(Br)c(/C=C/C(=O)CC(=O)/C=C/c2ccc(O)cc2)c1` [CU552, (1E,6E)-1-[2-bromo-5-(2-dimethylaminoethoxy)phenyl]-7-(4-hydroxyphenyl)hepta-1,6-diene-3,5-dione] yielded a melting point of 163 to 167 °C.

As for `O=C(/C=C/c1ccc(O)cc1)CC(=O)/C=C/c1cc(OCc2ccc(Cl)cc2Cl)ccc1[N+](=O)[O-]` [CU493, (1E,6E)-1-[5-(2,4-dichlorobenzyloxy)-2-nitrophenyl]-7-(4-hydroxyphenyl)hepta-1,6-diene-3,5-dione], the melting point is 157 to 161 °C. For the compound `O=C(/C=C/c1ccc(O)cc1)CC(=O)/C=C/c1ccccc1C=Cc1ccccc1` [CU672, (1E,6E)-1-(4-hydroxyphenyl)-7-(2-styrylphenyl)hepta-1,6-diene-3,5-dione], the melting point lay within 119 to 128 °C. The figure for `CCN(CC)c1ccc(/C=C/C(=O)CC(=O)/C=C/c2ccc(O)cc2)c(OC(=O)c2ccccc2)c1` [CU425, (1E,6E)-1-(2-benzoyloxy-4-diethylaminophenyl)-7-(4-hydroxyphenyl)hepta-1,6-diene-3,5-dione] is 212 to 215 °C; for `CN(C)CCOc1ccc(/C=C/C(=O)CC(=O)/C=C/c2ccc(O)cc2)c(Cl)c1` [CU551, (1E,6E)-1-[2-chloro-4-(2-dimethylaminoethoxy)phenyl]-7-(4-hydroxyphenyl)hepta-1,6-diene-3,5-dione] it is 170 to 173 °C; for `COc1cc(O)ccc1/C=C/C(=O)CC(=O)/C=C/c1cc(OCc2ccccc2)ccc1[N+](=O)[O-]` [CU594, (1E,6E)-1-(5-benzyloxy-2-nitrophenyl)-7-(4-hydroxy-2-methoxyphenyl)hepta-1,6-diene-3,5-dione] it is 183 to 186 °C. Turning to `CCOC(=O)Cn1nncc1-c1ccccc1/C=C/C(=O)CC(=O)/C=C/c1ccc(O)cc1` [CU647, (1E,6E)-1-[2-(1-ethoxycarbonylmethyl-1H-1,2,3-triazol-5-yl)phenyl]-7-(4-hydroxyphenyl)hepta-1,6-diene-3,5-dione], the melting point fell in the range of 169 to 174 °C. In turn, `CCOC(=O)Cn1cc(-c2ccccc2/C=C/C(=O)CC(=O)/C=C/c2ccc(O)cc2)nn1` [CU646, (1E,6E)-1-[2-(1-ethoxycarbonylmethyl-1H-1,2,3-triazol-4-yl)phenyl]-7-(4-hydroxyphenyl)hepta-1,6-diene-3,5-dione] registered a melting point of 99 to 105 °C. As for `COc1cc(O)ccc1/C=C/C(=O)CC(=O)/C=C/c1ccccc1C(F)(F)F` [CU574, (1E,6E)-1-(4-hydroxy-2-methoxyphenyl)-7-(2-trifluoromethylphenyl)hepta-1,6-diene-3,5-dione], the figure is 176 to 180 °C.
